# Test results reported in US11472846B2, “Compositions and methods for treating diseases by inhibiting exosome release” (priority 2016, dated 2022).
# “Also recorded” adds a separate entry of the source. Where two headings read alike, the source gives them in different places.
# Columns and labels:
# Type in all cases: cell-based, human
# [1] = system: MDA-MB-231 breast cancer cells; experiment: Propidium iodide cell cycle analysis (Cellometer), MDA-MB-231; settings: MDA-MB-231 cells, 48 hours, 0.28 μM/mL peptide
# Protocol: 1-4. Cell cycle analysis. MCF-7 and MDA-MB-231 breast cancer cells were cultured into 6-well plates at 4×10^5 cells per well and treated with either paclitaxel and cisplatin or combined with PEG-SMRwt-CLU peptide for 24 and 48 hours. Cell cycle analysis was performed using a propidium iodide cell cycle assay and measured using a Cellometer (Nexcelom, MA). […] Breast cancer cells were seeded into 96-well plates at 5×10^3 cells/ml, and treated with either 1.6 μM//mL of paclitaxel, or 3 mg/mL cisplatin, 1.12 μM/mL PEG-SMRwt-CLU peptide, SMR peptide combined with paclitaxel or with cisplatin (MCF-7 cells). Alternatively 1.6 μM/mL paclitaxel or 2 mg/mL cisplatin or 0.28 μM/mL of PEG-SMR-CLU peptide, or the peptide combined with each of these drugs was used for MDA-MB-231 cells. The concentrations for cisplatin and paclitaxel were experimentally determined IC50 dosages for the different cell types (data not shown). At the end of the 24 hr or 48 hr incubations, the cells were assessed by the Cellometry imaging cytometry assay.
# All above steps were done on MCF-7 and MDA-MB-231 cells separately. […]
# [2] = system: MCF-7 breast cancer cells; experiment: Annexin V-FITC/PI apoptosis assay, MCF-7; settings: MCF-7 cells, 48 hours
# Protocol: 1-5. Assessment of apoptosis. Breast cancer cells were seeded into 6-well plates at 4×10^5 cells per well and treated with either paclitaxel or cisplatin or various concentrations of SMR peptides for 24 hours or different time point. SMR as described above. Apoptosis was determined the using Annexin V-FITC detection kit (Nexcelom, MA) and visualized by Cellometer imaging cytometry.
# [3] = system: MDA-MB-231 breast cancer cells; experiment: MTT proliferation assay, MDA-MB-231; settings: MDA-MB-231 cells, 24 hours
# Protocol: (§1) 1-3. Viability and proliferation. Human breast cancer cell lines were seeded into 96-well plates (5000 cells/well) and treated for 24 hours with various concentrations of SMR peptides including PEG-SMRwt-Clu, PEG-SMRwt and PEG-SMRmut to determine IC50 (inhibition concentration). Cell proliferation was determined using the MTT assay (Molecular Devices, Sunnyvale, Calif.). Control experiments were performed with MTT treated cells alone and untreated cells, and on this basis, the incubation times of 24 hr and 48 hr were used for an MTT assay of peptide-treated cells (Stockerta JC. et al., 2012 and Riss TL. et al., 2015).
# (§2) 7-4. Cell proliferation and cytotoxicity assay. Human breast cancer cell lines MCF-7, MDAMB-231, and leukemia K562 cells, and non-tumorigenic MCF-10A cells are seeded into 96-well plates (5000 cells/well) and treated for 24 hours with 0-1120 nM SMRwt-CPP or SMRmut-CPP (FIG. 10). Cell proliferation was determined using the MTT [3-(4,5-dimethylthiazol-2-yl)-2,5-diphenyltetrazolium bromide] dye assay by SpectraMax M5 Fluorescence Plate Reader (Molecular Devices. Sunnyvale, Calif.). Cell viability was estimated by the conversion of yellow MTT by mitochondrial dehydrogenases of living cells to purple formazon (MTT assay). Control experiments were performed with cells treated or untreated with MTT, and on this basis, an incubation time of 24 hours was used for MTT assays of peptide-treated cells (Huang, M. B., et al., Oncotarget, 2017. 8(7): pp. 11302-11315.). Statistical significance of results was determined from three independent experiments including triplet or quadruplet sets in each experiment.
# [4] = system: MDA-MB-231 breast cancer cells; experiment: Exosome nanoparticle tracking analysis (NanoSight NTA), MDA-MB-231; settings: MDA-MB-231 cells treated 48 hr; control 4.7×10^9 particles/ml
# Protocol: (§3) 1-6. Exosome isolation and purification. Exosomes were isolated from breast cancer cells by differential centrifugation as previously described (Ali SA. et al., 2010). Untreated tumor cells were used as a control. Briefly, the above treated and untreated cell culture supernatants were centrifuged at 400×g for 10 minutes. The supernatants were transferred to a clear tube and centrifuged at 10,000×g for 30 minutes. The supernatants from the second spin were ultracentrifuged at 200,000×g for 2 hours to pellet exosomes. Finally, the exosome pellets were re-suspended with PBS and stored at 4° C. until used for analysis.
# (§4) 1-8. Exosome nanoparticle tracking analysis (NTA). Analysis of absolute size distribution of exosomes was performed using NanoSight LM10 with NTA2.3 (NanoSight Ltd., Minton Park, UK). Particles were automatically tracked and sized based on Brownian motion and the diffusion coefficient. After isolation, the untreated and treated breast cancer exosomes were re-suspended in 0.5 mL of PBS. Control medium and filtered PBS were used as controls in this technique. The NTA measurement conditions were: temperature=21.0+/−0.5° C.; viscosity=0.99+/−0.01 cP; frames per second=25; measurement time=30 s. The detection threshold was similar in all samples. Two recordings were performed for each sample.
# (§5) 7-11. Exosome nanoparticle tracking analysis (NTA). […]
# [5] = system: MCF-7 breast cancer cells; experiment: Exosome nanoparticle tracking analysis (NanoSight NTA), MCF-7; settings: MCF-7 cells treated 48 hr; untreated control 5.16×10^9 particles/ml
# Protocol: as §3, §4, §5
# [6] = system: MCF-7 breast cancer cells; experiment: MTT proliferation assay, MCF-7; settings: MCF-7 cells, 24 hours
# Protocol: as §1, §2
# [7] = system: non-tumorigenic MCF-10A cells; experiment: MTT proliferation assay, MCF-10A; settings: 24 hours, up to 1120 nM/mL
# Protocol: as §1
# as §2, with “Control experiments were performed with cells treated or untreated with MTT, and on this basis, an incubation time of 24 hours was used for MTT assays of peptide-treated cells (Huang, M. B., et al., Oncotarget, 2017. 8(7): pp. 11302-11315.).” left out
# [8] = MTT, read-out: 50% inhibition of cell growth
# [9] = read-out: SMR at IC50 concentration
sequence,measurement,setting,value
NXNVGFPVAAVGFPVHPLSKHPYWSQP (SEQ ID NO: 37) [PEG-SMRwt-Clu],cell cycle effect,[1],induced cell cycle arrest
same,effect on paclitaxel/cisplatin-induced apoptosis,[2],increased the level of drug-induced apoptosis
same,IC50,[3]; [8],0.28 µM
same,IC50,[3]; [9],0.28 µM
same,number of exosome particles (NTA),[4],6.8×10^8 particles/ml
same,number of exosome particles (NTA),[5],3.28×10^8 particles/ml
same,IC50,[6]; [8],1.12 µM
same,IC50,[6]; [9],1.12 µM
VGFPVAAVGFPVGRKKRRQRRRPPQ [SMRwt-CPP],effect on proliferation (in words),[7],not affected; also recorded: no effect
